Read-outs that look alike come from different tables or passages of the source.
Columns and labels:
[1] = PK brain permeability after single oral gavage; format: in vivo, C57BL/6 mice; conditions: mice, 10 mg/kg oral, 2 hours post dose; for concentration at 2 h / Kp at 2 h: male, C57BL/6, mouse; for concentration at 2 h: po, 10 mg/kg; for Kp at 2 h: read-out: Kpu, u (unbound partitioning coefficient, Cb,u to Cp,u); for brain permeability (in words): statement on Table 3
Method: The distribution of compounds into the brain in vivo was determined in C57BL/6 mice following single oral (po) gavage administration.
Test compounds were formulated at 1 mg/mL in 0.5% HPMC E4M, 0.2% Tween 80 in water to achieve solutions or homogenous suspensions suitable for po administration. Formulations were administered to 3 male C57BL/6 mice at a volume of 10 mL/kg resulting in a dose level of 10 mg/kg. Blood samples were collected at 1 and 2 hours post dose into tubes containing K2EDTA as anticoagulant, processed to plasma and stored at −60° C. or lower until LC-MS/MS analysis. Brains were harvested 2 hours post dose, rinsed with saline, dried, weighed and homogenised under ice cold conditions. Brain homogenates were stored at −60° C. or lower until LC-MS/MS analysis.
Dose formulation concentrations were verified using a LC-UV or LC-MS/MS method. Test compound concentrations in plasma and brain homogenate were quantitatively determined using LC-MS/MS methods developed in individual matrices against calibration curves with QC samples included and acceptance criteria as per CRO SOPs. Concentrations in brain homogenate were corrected for the dilution factor used to prepare the homogenate to give concentrations in whole brain tissue.
Plasma and brain concentration versus time data were reported and plotted in excel. The brain to plasma ratio at 2 hours post dose was calculated for each animal using the following equation:
Brain: plasma=brain concentration (ng/g) at 2 h/plasma concentration (ng/ml) at 2 h As only unbound test compound is available to exert an effect on the target, unbound plasma (Cp,u) and unbound brain (Cb,u) concentrations were calculated by correcting the total concentrations for the unbound fraction in plasma (fu,p) or brain (fu,b) determined from in vitro plasma protein or brain tissue binding assays using the following equations: […]
The unbound partitioning coefficient (Kpu,u) was then calculated based on the ratio of Cb,u to Cp,u using the following equation: […]
In these studies, mice were orally administrated a 10 mg/kg dose and sacrificed 2 hours post dose and tissue samples (brain homogenate and plasma) were analyzed subsequently as described above.

[2] = target: T1, Recombinant mouse CD38 (Mus musculus, UniProt P56528); assay: Mouse CD38 hydrolase assay (fluorescence-based, ε-NAD substrate); format: biochemical; conditions: recombinant mouse CD38 0.4 nM, 12 μM ε-NAD, 30 min preincubation at 25° C.
T1 sequence (P56528 1-304): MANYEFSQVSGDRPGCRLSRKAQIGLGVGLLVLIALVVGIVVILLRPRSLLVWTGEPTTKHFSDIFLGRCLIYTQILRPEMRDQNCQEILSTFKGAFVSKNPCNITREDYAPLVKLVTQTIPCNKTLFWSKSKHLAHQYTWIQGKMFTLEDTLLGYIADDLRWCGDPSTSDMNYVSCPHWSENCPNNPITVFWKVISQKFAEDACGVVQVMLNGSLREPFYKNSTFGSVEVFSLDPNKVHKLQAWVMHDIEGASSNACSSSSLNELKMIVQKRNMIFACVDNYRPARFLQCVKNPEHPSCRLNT
In short: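 Recombinant mouse CD38 (0.4 nM) preincubated with compound 30 min at 25° C in PBS without Ca/Mg, 0.005% BSA, pH 7.4, then 12 μM ε-NAD added. Fluorescence (ex 300/em 410 nm) read at 0 and 6 min, difference used. IC50 from 10-point half-log curve, four-parameter fit, normalised to tool-inhibitor low control.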

[3] = brain, read-out: total brain conc.
[4] = brain, total corrected for unbound fraction in brain, read-out: free brain conc.
[5] = plasma, read-out: total plasma conc.
[6] = plasma, total corrected for unbound fraction in plasma, read-out: free plasma conc.

concentration at 2 h [1, 3] [nM] | concentration at 2 h [1, 4] [nM] | Kp at 2 h ([1]; brain) | concentration at 2 h [1, 5] [nM] | concentration at 2 h [1, 6] [nM] | brain permeability (in words) [1] | IC50 [2] [nM] | Compound
572 | 236 | 0.09 | 6310 | 2540 | good brain permeability | ≤ 40 | O=C(N[C@H]1CC[C@H](NCC(F)(F)F)CC1)c1nc(-n2ccnc2)nc2ncccc12 [Example 4, 2-(1H-imidazol-1-yl)-N-((1r,4r)-4-((2,2,2-trifluoroethyl)amino)cyclohexyl)pyrido[2,3-d]pyrimidine-4-carboxamide]
8370 | 575 | 0.79 | 12600 | 788 | good brain permeability | ≤ 40 | O=C(N[C@H]1CC[C@H](N2CCC(F)(F)C2)CC1)c1nc(-n2ccnc2)nn2cccc12 [Example 12, N-((1r,4r)-4-(3,3-difluoropyrrolidin-1-yl)cyclohexyl)-2-(1H-imidazol-1-yl)pyrrolo[2,1-f][1,2,4]triazine-4-carboxamide]
3380 | 189 | 0.23 | 3660 | 809 | good brain permeability | ≤ 40 | O=C(N[C@H]1CC[C@H](N2CC[C@H](F)C2)CC1)c1nc(-n2ccnc2)nn2cccc12 [Example 13, N-((1S,4r)-4-((S)-3-fluoropyrrolidin-1-yl)cyclohexyl)-2-(1H-imidazol-1-yl)pyrrolo[2,1-f][1,2,4]triazine-4-carboxamide]
3320 | 181 | 0.19 | 3930 | 959 | good brain permeability | ≤ 40 | O=C(N[C@H]1CC[C@H](N2CC[C@@H](F)C2)CC1)c1nc(-n2ccnc2)nn2cccc12 [Example 14, N-((1R,4r)-4-((R)-3-fluoropyrrolidin-1-yl)cyclohexyl)-2-(1H-imidazol-1-yl)pyrrolo[2,1-f][1,2,4]triazine-4-carboxamide]
864 | 218 | 0.22 | 5010 | 954 | good brain permeability | ≤ 40 | O=C(N[C@H]1CC[C@H](NCC(F)(F)F)CC1)c1cn2ccnc2c(-n2ccnc2)n1 [Example 19, 8-(1H-imidazol-1-yl)-N-((1r,4r)-4-((2,2,2-trifluoroethyl)amino)cyclohexyl) imidazo[1,2-a]pyrazine-6-carboxamide]
1420 | 481 | 0.18 | 17900 | 2630 | good brain permeability | ≤ 40 | O=C(N[C@H]1CC[C@H](NCC(F)(F)F)CC1)c1cn2ncnc2c(-n2ccnc2)n1 [Example 20, 8-(1H-imidazol-1-yl)-N-((1r,4r)-4-((2,2,2-trifluoroethyl)amino)cyclohexyl)-[1,2,4]triazolo[1,5-a]pyrazine-6-carboxamide]
1500 | 507 | 0.2 | 8220 | 2470 | good brain permeability | ≤ 40 | O=C(N[C@H]1CC[C@H](NCC(F)(F)F)CC1)c1cn2nccc2c(-n2ccnc2)n1 [Example 21, 4-(1H-imidazol-1-yl)-N-((1r,4r)-4-((2,2,2-trifluoroethyl)amino)cyclohexyl)pyrazolo[1,5-a]pyrazine-6-carboxamide]
4920 | 319 | 0.39 | 19100 | 840 | good brain permeability | ≤ 40 | O=C(N[C@H]1CC[C@H](NCC(F)(F)F)CC1)c1nc(-n2ccnc2)nn2cccc12 [Example 29, 2-(1H-imidazol-1-yl)-N-((1r,4r)-4-((2,2,2-trifluoroethyl)amino)cyclohexyl)pyrrolo[2,1-f][1,2,4]triazine-4-carboxamide]
1580 | 241 | 0.11 | 10600 | 2160 | good brain permeability | ≤ 40 | O=C(N[C@H]1CC[C@H](N2CCC(F)(F)C2)CC1)c1cn2ccnc2c(-n2ccnc2)n1 [Example 41, N-((1r,4r)-4-(3,3-difluoropyrrolidin-1-yl)cyclohexyl)-8-(1H-imidazol-1-yl) imidazo[1,2-a]pyrazine-6-carboxamide]
2160 | 555 | 0.16 | 9340 | 3490 | good brain permeability | ≤ 40 | O=C(N[C@H]1CC[C@H](N2CC(F)(F)C2)CC1)c1cn2ncnc2c(-n2ccnc2)n1 [Example 45, N-((1r,4r)-4-(3,3-difluoroazetidin-1-yl)cyclohexyl)-8-(1H-imidazol-1-yl)-[1,2,4]triazolo[1,5-a]pyrazine-6-carboxamide]
2570 | 403 | 0.2 | 8000 | 1980 | good brain permeability | ≤ 40 | O=C(N[C@H]1CC[C@H](N2CCC(F)(F)C2)CC1)c1cn2ncnc2c(-n2ccnc2)n1 [Example 48, N-((1r,4r)-4-(3,3-difluoropyrrolidin-1-yl)cyclohexyl)-8-(1H-imidazol-1-yl)-[1,2,4]triazolo[1,5-a]pyrazine-6-carboxamide]

— patent US20260224582A1, “Heterobicyclic amides as inhibitors of CD38” (Cerevance, Inc., priority 2022, published 2026)
